Laboratory results published in US20260234165A1, “MACROCYCLIC COMPOUNDS, PREPARATION METHOD THEREFOR, AND USE THEREOF” (GENFLEET THERAPEUTICS (SHANGHAI) INC., priority 2004, published 2026).
Read-outs that look alike come from different tables or passages of the source.

Tests used:
[1] = test system: p-ERK in AsPC-1 cells (KRAS G12D mutation); assay: Cell p-ERK assay (HTRF) in AsPC-1 cells; assay type: cell-based, human
Procedure: (§1) AsPC-1 cells were purchased from ATCC, Cat. No. CRL-1682: NCI-H441 cells were purchased from ATCC, Cat. No. HTB-174: RPMI-1640 medium was purchased from Gibco, Cat. No. I1875-093: FBS was purchased from Gibco, Cat. No. 10099-141C: penicillin/streptomycin double-antibiotic solution (PS) was purchased from Gibco, Cat. No. 15140-122: trypsin (containing EDTA) was purchased from Gibco, Cat. No. 25200-072; DMSO was purchased from VWRAMRESCO, Cat. No. 0231-500ML; 96-well cell culture plates were purchased from Corning, Cat. No. 3599: white-bottomed, opaque 96-well plates were purchased from Cisbio, Cat. No. 66PL96025; Advance ERK phospho-T202/Y204 kit was purchased from Cisbio, Cat. No. 64AERPEH; cell counter was purchased from CHEMOMETEC, model: NC-200; microplate reader was purchased from PerkinElmer, model: EnVision.
(§2) AsPC-1, a human pancreatic cancer cell strain endogenously containing a KRAS^G12D mutation, was cultured in a complete medium containing RPMI-1640+10% FBS+1% PS. NCI-H441, a human non-small cell lung cancer cell strain endogenously containing a KRAS^G12V mutation, was cultured in a complete medium containing RPMI-1640+10% FBS+1% PS.
(§3) The cells were digested with trypsin (containing EDTA), collected in their corresponding complete media, and counted. The density of the cell suspensions was adjusted with their corresponding complete media, and 10000 AsPC-1 cells or 20000 NCI-H441 cells per well were seeded into a 96-well cell culture plate, with the volume of the medium in each well being 80 μL.
(§4) The cell culture plate was incubated in an incubator at 37° C. with 5% CO2 overnight. A series of 3.16-fold gradient dilutions of a 1000- compound stock solution were prepared with DMSO, and then diluted 200-fold with the complete medium described above to give 5′ compound stock solutions. On the day after cell seeding, 20 μL of the 5× compound stock solution was added to each cell culture well. As a result, the final concentration of the compound in the cell culture well became 1×, and the DMSO content in the well was 0.1%. In addition to the compound-treated wells described above, cell-containing DMSO control wells were also set. A complete medium containing 0.5% DMSO was added at 20 μL/well. After the mixture was well mixed, the culture plate was incubated in the incubator at 37° C. with 5% CO2 for another 3 h. The medium was then removed from the culture wells, and 50 μL of cell lysis buffer (from Advance ERK phospho-T202,Y204 kit) was added to each well. The mixture was well mixed and incubated for 30 min. Then, 16 μL of the mixture was transferred to a white-bottomed, opaque 96-well assay plate, and separately, 16 μL of cell lysis buffer was added to additional wells (serving as blank wells) in the assay plate. After the transfer was completed, 4 μL of p-ERK HTRF antibody mixture (from Advance ERK phospho-T202/Y204 kit) was added to each well of the assay plate, followed by a 4-hour incubation. The HTRF signal values (RLU) were then measured using a microplate reader, and the inhibition rate of the compound against p-ERK levels was calculated as follows: IR (%)=(RLUDMSO−RLUcompound)/(RLUDMSO−RLUblank)×100%, where RLUDMSO is the average HTRF signal value from the DMSO control well samples, RLUblank is the average HTRF signal value from the blank well samples, and RLUcompound is the HTRF signal value from the compound-treated well samples. Using an XLfit software, the IR (%) values were plotted against the logarithm of the compound concentrations, and the dose-response curves were fitted using the four-parameter method to calculate the IC50 values.

[2] = test system: p-ERK in NCI-H441 cells (KRAS G12V mutation); assay: Cell p-ERK assay (HTRF) in NCI-H441 cells; assay type: cell-based, human
Procedure: as §1, §2, §3, §4

[3] = AsPC-1 cells, 3 h compound incubation, HTRF p-ERK T202/Y204, read-out: AsPC-1 p-ERK IC50
[4] = NCI-H441 cells, 3 h compound incubation, HTRF p-ERK T202/Y204, read-out: H441 p-ERK IC50
[5] = Homo sapiens, ASPC1, 3 h, AsPC-1 cells, 3 h compound incubation, HTRF p-ERK T202/Y204, read-out: AsPC-1 p-ERK IC50
[6] = Homo sapiens, NCI-H441, 3 h, NCI-H441 cells, 3 h compound incubation, HTRF p-ERK T202/Y204, read-out: H441 p-ERK IC50

Row | Structure (SMILES) | IC50 [1, 3] [nM] | IC50 [2, 4] [nM] | IC50 [1, 5] [nM] | IC50 [2, 6] [nM] | other results
1 | CCn1c(-c2cc(C#CCN3CCC(O)(c4cccc(C)[n+]4[O-])CC3)cnc2[C@H](C)OC)c2c3cc(ccc31)-c1csc(n1)C[C@H](NC(=O)[C@H]1[C@H](C)[C@@H]1C)C(=O)N1CCC[C@H](N1)C(=O)OCC(C)(C)C2 (atropisomer, axis not shown; (Ra)) [Compound Z1055, 2-(1-(3-(5-((6^3S,4S,Z)-4-((r,2R,3S)-2,3-dimethylcyclopropane-1-carboxamido)-1^1-ethyl-10,10-dimethyl-5,7-dioxo-6^1,6^2,6^3,6^4,6^5,6^6-hexahydro-1^1H-8-oxa-2(4.2)-thiazola-1(5,3)-indola-6(1.3)-pyridazinacycloundecaphane-12-yl)-(Ra)-6-((S)-1-methoxyethyl)pyridin-3-yl)prop-2-yn-1-yl)-4-hydroxypiperidin-4-yl)-6-methylpyridine 1-oxide] | – | – | – | – | IC50 ([1]; Homo sapiens, ASPC1, 3 h, read-out: AsPC-1 p-ERK IC50(nM)): 0.32 nM; IC50 ([2]; Homo sapiens, NCI-H441, 3 h, read-out: H441 p-ERK IC50(nM)): 0.19 nM
2 | CCn1c(-c2cc(OCCN3CCS(=O)(=O)CC3)cnc2[C@H](C)OC)c2c3cc(ccc31)-c1csc(n1)C[C@H](NC(=O)[C@H]1[C@H](C)[C@@H]1C)C(=O)N1CCC[C@H](N1)C(=O)OCC(C)(C)C2 (atropisomer, axis not shown; (Sa)) [Compound Z470, (1r,2R,3S)—N-((6^3S,4S,Z)—(Sa)-1^2-(5-(2-(1,1-dioxidothiomorpholino)ethoxy)-2-((S)-1-methoxyethyl)pyridin-3-yl)-1^1-ethyl-10,10-dimethyl-5,7-dioxo-6^1,6^2,6^3,6^4,6^5,6^6-hexahydro-1^1H-8-oxa-2(4,2)-thiazola-1(5,3)-indola-6(1,3)-pyridazinacycloundecaphane-4-yl)-2,3-dimethylcyclopropane-1-carboxamide] | 35.3 | 69.4 | – | – | –
3 | C=C1CCN2CCN(c3cnc([C@H](C)OC)c(-c4c5c6cc(ccc6n4CC)-c4csc(n4)C[C@H](NC(=O)[C@H]4[C@H](C)[C@@H]4C)C(=O)N4CCC[C@H](N4)C(=O)OCC(C)(C)C5)c3)C[C@H]2C1 (atropisomer, axis not shown; (Sa)) [Compound Z549, (1r,2R,3S)—N-((6^3S,4S,Z)-1^1-ethyl-(Sa)-1^2-(2-((S)-1-methoxyethyl)-5-((R)-8-methyleneoctahydro-2H-pyrido[1,2-a]pyrazin-2-yl)pyridin-3-yl)-10,10-dimethyl-5,7-dioxo-6^1,6^2,6^3,6^4,6^5,6^6-hexahydro-1′H-8-oxa-2(4,2)-thiazola-1(5,3)-indola-6(1,3)-pyridazinacycloundecaphane-4-yl)-2,3-dimethylcyclopropane-1-carboxamide] | 32.6 | 26.7 | – | – | –
4 | CCn1c(-c2cc(OCCN3CCOCC34CC4)cnc2[C@H](C)OC)c2c3cc(ccc31)-c1csc(n1)C[C@H](NC(=O)C1[C@@H](C)[C@H]1C)C(=O)N1CCC[C@H](N1)C(=O)OCC1(CC1)C2 (stereo partly drawn) [Compound Z385, (1r,2R,3S)—N-((3′S,4′S,Z)-2′-(5-(2-(7-oxa-4-azaspiro[2,5]octan-4-yl)ethoxy)-2-((S)-1-methoxyethyl)pyridin-3-yl)-1-ethyl-5′,7′-dioxospiro[cyclopropane-1,10′-8-oxa-2(4,2)-thiazola-1(5,3)-indola-6(1,3)-pyridazinacycloundecaphan]-4′-yl)-2,3-dimethylcyclopropane-1-carboxamide] | – | – | 33.5 | 20.7 | –
5 | CCn1c(-c2cc(C#CC(=O)N3CCCOCC3)cnc2[C@H](C)OC)c2c3cc(ccc31)-c1csc(n1)C[C@H](NC(=O)[C@H]1[C@H](C)[C@@H]1C)C(=O)N1CCC[C@H](N1)C(=O)OCC(C)(C)C2 [Compound Z810A, (1r,2R,3S)—N-((6^3S,4S,Z)-1^2-ethyl-1^2-(5-(3-(1,4-oxazepan-4-yl)-3-oxoprop-1-yn-1-yl)-2-((S)-1-methoxyethyl)pyridin-3-yl)-10,10-dimethyl-5,7-dioxo-6^1,6^2,6^3,6^4,6^5,6^6hexahydro-1^1H-8-oxa-2(4,2)-thiazola-1(5,3)-indola-6(1,3)-pyridazinacycloundecaphane-4-yl)-2,3-dimethylcyclopropane-1-carboxamide] | – | 0.63 | 1.22 | – | –
6 | CCn1c(-c2cc(C#CCN3CCC3)cnc2[C@H](C)OC)c2c3cc(ccc31)-c1csc(n1)C[C@H](NC(=O)CC1CC1)C(=O)N1CCC[C@H](N1)C(=O)OCC(C)(C)C2 [Compound Z999, N-((6^3S,4S,Z)-1^2-(5-(3-(azetidin-1-yl)prop-1-yn-1-yl)-2-((S)-1-methoxyethyl)pyridin-3-yl)-1^1-ethyl-10,10-dimethyl-5,7-dioxo-6^1,6^2,6^3,6^4,6^5,6^6-hexahydro-1^1H-8-oxa-2(4,2)-thiazola-1(5,3)-indola-6(1,3)-pyridazinacycloundecaphane-4-yl)-2-cyclopropylacetamide] | – | – | 3.57 | 2.16 | –
